Assay results reported in patent publication US20080058208A1, “5,6-Cycloalkyl-7-Aminotriazolopyrimidines, their Preparation and their Use for Controlling Harmful Fungi, and Compositions Comprising these Compounds” (BASF Aktiengesellschaft, priority 2004, published 2008).

What was measured:
[1] = test system: Phytophthora infestans; assay type: cell-based; conditions: 125 ppm; sporangia suspension; 18° C.; absorption at 405 nm on seventh day after inoculation
[2] = test system: Pythium species; assay: Activity against Pythium species in the microtiter test; assay type: cell-based; conditions: 125 ppm; zoospore suspension; 18° C.; absorption at 405 nm on seventh day after inoculation

SMILES: Nc1c2c(nc3ncnn13)CCCC2 [I-2, 5,6,7,8-tetrahydro-[1,2,4]triazolo[5,1-b]quinazolin-9-ylamine]
- relative growth of the pathogens, % of that of the untreated control [1]: 6%
- relative growth of the pathogens, % of that of the untreated control [2]: 7%
